{
  "source": "patent US9273006B2",
  "about": "“Anabolic compounds for treating and preventing bone loss diseases” (SYDDANSK UNIVERSITET, priority 2012, dated 2016)",
  "key": {"hMSC-TERT [1]": {"tested_on": "hMSC-TERT", "test": "In vitro osteoblast differentiation in OIM (ALP activity, alizarin red, qRT-PCR)", "format": "cell-based, human", "conditions": "co-treatment with H-8, hMSC", "method": "F) H-8 enhances ALP activity of hMSC, in the absence of serum.\nAdding H-8 (25 μM) to the osteogenic induction media, during 9-days in vitro hMSC osteogenic differentiation, enhanced expression of osteoblastic markers as shown by qRT-PCR analysis. **P≦0.05, ***P≦0.005 (significant difference as compared to vehicle).\nH-8 was added (25 μM) to the OIM at different time points during 12-days period.\nIn order to confirm the results obtained from the initial screen, the present inventors incubated hMSC-TERT and primary human bone marrow derived MSC (hBMSC) in osteogenic induction medium (OIM) supplemented with H-8 (dose range 1-30 μM) or vehicle. […] To determine the stage of differentiation at which the effect of H-8 was most apparent, the present inventors added H-8 (25 μM) to the OIM at different time points during 12-days period."}, "TGFβ signaling in hMSC": {"tested_on": "TGFβ signaling in hMSC", "test": "TGFβ signaling, qRT-PCR and western blot", "format": "cell-based, human", "conditions": "co-treatment with H-8", "text": "(C): Western blot analysis of p-Smad and p-Akt reveled that the enahcing effect of H-8 on osteoblast differentiation of hMSC is mediated through activation of non-canonical TGFβ signaling. (D): SB431542, a selective inhibitor of TGWU activity abolished the enhanced phosphorylation of Akt and smad2 after H-8 treatment.\nTo investigate the mechanisms of the enhancing effects of H-8 on osteoblast differentiation of hMSC, the present inventors performed a DNA microarray analysis of hMSC-TERT under osteogenic culture conditions, in the presence or absence of the H-8 (25 μM). […] In order to identify the pathway that is primarily regulated by H-8 treatment, phosphorylation of canonical and non-canonical TGFβ signaling components was evaluated 5 minutes and 15 minutes after H-8 treatment. The inventors also evaluated the effect of TGFβ3 treatment on H-8 induced phosphorylation of Smad2 and Akt. […] This observation further confirms that the enhancing effect of H-8 on osteoblast differentiation of hMSC is mediated through regulation of TGFβ signaling."}, "hMSC-TERT [2]": {"tested_on": "hMSC-TERT"}, "[3]": {"conditions": "1 μM inhibitor in osteogenic inducing media, 6 days after induction, hMSC-TERT"}, "[4]": {"conditions": "10 μM inhibitor in osteogenic inducing media, 6 days after induction, hMSC-TERT"}},
  "note": "Several values for one entry are separate records, joined by “and”; a condition that tells them apart may be missing. Equal values may be shown once. Read-outs that look alike come from different tables or passages of the source.",
  "data": [
    {"molecule": "NC(=O)c1ccc(-c2nc(-c3ccccn3)c(-c3ccc4c(c3)OCO4)[nH]2)cc1", "note": "[SB431542]", "values": [
      {"measurement": "effect on H-8 enhanced osteoblast differentiation (ALP activity, matrix mineralization)", "setting": "hMSC-TERT [1]", "value": "blunted the enhancing effect of H-8 on osteoblast differentiation of hMSC"},
      {"measurement": "effect on H-8 induced Smad2 and Akt phosphorylation", "setting": "TGFβ signaling in hMSC", "value": "abolished the enhancing effect of H-8 on Smad2 and Akt phosphorylation"}
    ]},
    {"molecule": "Cc1cc2ncc(-c3ccccc3)nc2cc1C", "note": "[Tyrphostin AG 1295]", "values": [
      {"measurement": "Relative ALP activity", "setting": "hMSC-TERT [2]; [3]", "value": 1.007},
      {"measurement": "Relative ALP activity", "setting": "hMSC-TERT [2]; [4]", "value": 0.3556}
    ]},
    {"molecule": "COc1cc2ncnc(Nc3cccc(Cl)c3)c2cc1OC", "note": "[Tyrphostin AG 1478]", "values": [
      {"measurement": "Relative ALP activity", "setting": "hMSC-TERT [2]; [3]", "value": 1.097},
      {"measurement": "Relative ALP activity", "setting": "hMSC-TERT [2]; [4]", "value": "Toxic"}
    ]},
    {"molecule": "N#CC(=C(/N)Sc1ccccc1N)/C(C#N)=C(\\N)Sc1ccccc1N", "note": "[U-0126]", "values": [
      {"measurement": "Relative ALP activity", "setting": "hMSC-TERT [2]", "value": "0.3485 and 0.281"}
    ]},
    {"molecule": "COC[C@H]1OC(=O)c2coc3c2[C@@]1(C)C1=C(C3=O)[C@@H]2CCC(=O)[C@@]2(C)C[C@H]1OC(C)=O", "note": "[Wortmannin]", "values": [
      {"measurement": "Relative ALP activity", "setting": "hMSC-TERT [2]; [3]", "value": 0.8301},
      {"measurement": "Relative ALP activity", "setting": "hMSC-TERT [2]; [4]", "value": 0.9122}
    ]},
    {"molecule": "C[C@@H](N)[C@H]1CC[C@H](C(=O)Nc2ccncc2)CC1", "note": "[Y-27632]", "values": [
      {"measurement": "Relative ALP activity", "setting": "hMSC-TERT [2]; [3]", "value": 0.9848},
      {"measurement": "Relative ALP activity", "setting": "hMSC-TERT [2]; [4]", "value": 0.4092}
    ]},
    {"molecule": "Cc1ccc(NC(=O)c2cccc(N(C)C)c2)cc1NC(=O)c1ccc(O)cc1", "note": "[ZM 336372]", "values": [
      {"measurement": "Relative ALP activity", "setting": "hMSC-TERT [2]; [3]", "value": 0.869},
      {"measurement": "Relative ALP activity", "setting": "hMSC-TERT [2]; [4]", "value": 0.5373}
    ]},
    {"molecule": "C=CC(=O)c1ccc2ccccc2c1", "note": "[ZM 449829]", "values": [
      {"measurement": "Relative ALP activity", "setting": "hMSC-TERT [2]; [3]", "value": 0.9444},
      {"measurement": "Relative ALP activity", "setting": "hMSC-TERT [2]; [4]", "value": 0.8946}
    ]},
    {"molecule": "Cn1cnc2nc(NCCO)nc(NCc3ccccc3)c21", "note": "[iso-Olomoucine]", "values": [
      {"measurement": "Relative ALP activity", "setting": "hMSC-TERT [2]; [3]", "value": 1.084},
      {"measurement": "Relative ALP activity", "setting": "hMSC-TERT [2]; [4]", "value": 0.9318}
    ]},
    {"molecule": "BML-265", "values": [
      {"measurement": "Relative ALP activity", "setting": "hMSC-TERT [2]; [3]", "value": 0.3954},
      {"measurement": "Relative ALP activity", "setting": "hMSC-TERT [2]; [4]", "value": "Toxic"}
    ]},
    {"molecule": "Indirubin-3′-monoxime", "values": [
      {"measurement": "Relative ALP activity", "setting": "hMSC-TERT [2]; [3]", "value": 0.2589},
      {"measurement": "Relative ALP activity", "setting": "hMSC-TERT [2]; [4]", "value": 0.3697}
    ]},
    {"molecule": "TGFβ3: Transforming growth factor β3, added to hMSC together with H-8 (protein, UniProt P10600 301-412, looked up) Transforming growth factor …: ALDTNYCFRNLEENCCVRPLYIDFRQDLGWKWVHEPKGYYANFCSGPCPYLRSADTTHSTVLGLYNTLNPEASASPCCVPQDLEPLTILYYVGRTPKVEQLSNMVVKSCKCS", "values": [
      {"measurement": "effect on H-8 induced Smad2 and Akt phosphorylation", "setting": "TGFβ signaling in hMSC", "value": "enhancing effect on H-8 induced Akt and Smad2 phosphorylation"}
    ]}
  ]
}
